The test has as its target Beta-3 Adrenergic Receptor (Homo sapiens (Human), UniProt P13945). Description: HTRF cAMP antagonist assay (IC50 determination). In kind it is cell-based. The settings on record: CHO-K1 cells stably expressing recombinant receptor; antagonism of isoproterenol at EC90; cAMP readout. A digest of the protocol:
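CHO-K1 cells stably expressing receptor, 1500 cells/well, preincubated briefly with 10-point 5-fold compound series (top final typically 10 or 100 μM) in PBS with 1 mM IBMX, then challenged with isoproterenol at EC90 for 1 h at room temperature. cAMP read by HTRF against on-plate standard curve; IC50 from dose-response.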
A general note: Time-resolved FRET reads energy transfer from a long-lived donor to a nearby acceptor.

Sequence of Beta-3 Adrenergic Receptor (P13945 whole entry, species assumed): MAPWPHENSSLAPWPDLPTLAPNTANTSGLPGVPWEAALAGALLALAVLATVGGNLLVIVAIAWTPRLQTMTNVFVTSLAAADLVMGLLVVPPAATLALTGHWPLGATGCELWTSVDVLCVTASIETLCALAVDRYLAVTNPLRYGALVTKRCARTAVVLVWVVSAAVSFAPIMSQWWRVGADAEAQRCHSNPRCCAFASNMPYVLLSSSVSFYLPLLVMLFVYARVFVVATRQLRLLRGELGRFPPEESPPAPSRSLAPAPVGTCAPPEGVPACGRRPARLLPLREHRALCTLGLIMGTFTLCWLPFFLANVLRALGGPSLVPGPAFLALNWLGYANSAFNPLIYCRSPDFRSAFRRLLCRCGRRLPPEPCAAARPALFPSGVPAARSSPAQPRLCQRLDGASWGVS

For the compound `CS(=O)(=O)c1cccc(OC[C@@H](O)CNC2COC3(CCN(S(=O)(=O)c4cccc(-c5cn[nH]c5)c4)CC3)C2)c1` (stereo partly drawn) [Compound 37, (2S)-1-(8-(3-(1H-pyrazol-4-yl)phenylsulfonyl)-1-oxa-8-azaspiro[4.5]decan-3-ylamino)-3-(3-(methylsulfonyl)phenoxy)propan-2-ol], the concentration for half-maximal inhibition (IC50) (commonly the concentration that inhibits the measured activity by half) amounted to 0.00937 µM.

`O=S(=O)(c1cccc(OC[C@@H](O)CN[C@H]2COC3(CCN(S(=O)(=O)c4ccc5ncccc5c4)CC3)C2)c1)C1CCC1` [Compound 114, (S)-1-(3-(cyclobutylsulfonyl)phenoxy)-3-((R)-8-(quinolin-6-ylsulfonyl)-1-oxa-8-azaspiro[4.5]decan-3-ylamino)propan-2-ol]: the IC50 turned out to be 0.052 µM.

Consider `CCNCc1ccc(-c2cccc(S(=O)(=O)N3CCC4(CC3)C[C@@H](NC[C@H](O)COc3cccc(S(=O)(=O)C5(CO)CC5)c3)CO4)c2)cc1` [Compound 268, (S)-1-((R)-8-(4′-((ethylamino)methyl)biphenyl-3-ylsulfonyl)-1-oxa-8-azaspiro[4.5]decan-3-ylamino)-3-(3-(1-(hydroxymethyl)cyclopropylsulfonyl)phenoxy)propan-2-ol], for which the IC50 is 0.138 µM.

For `CS(=O)(=O)c1cccc(OC[C@H](O)CN[C@@H]2COC3(CCN(S(=O)(=O)c4ccc5ccccc5c4)CC3)C2)c1` [Compound 33, (R)-1-(3-(methylsulfonyl)phenoxy)-3-((S)-8-(naphthalen-2-ylsulfonyl)-1-oxa-8-azaspiro[4.5]decan-3-ylamino)propan-2-ol], the IC50 came out at 0.189 µM.

As for `O=S(=O)(c1cccc(OC[C@@H](O)CN[C@H]2COC3(CCN(S(=O)(=O)c4cnc5ccccc5c4)CC3)C2)c1)C1CC(O)C1` (stereo partly drawn) [Compound 146, 3-(3-((S)-2-hydroxy-3-((R)-8-(quinolin-3-ylsulfonyl)-1-oxa-8-azaspiro[4.5]decan-3-ylamino)propoxy)phenylsulfonyl)cyclobutanol], the IC50 was found to be 0.104 µM.

As to `O=S(=O)(c1cccnc1)N1CCC2(CC1)C[C@@H](NC[C@H](O)COc1cccc(S(=O)(=O)C3(CO)CC3)c1)CO2` [Compound 195, (S)-1-(3-(1-(hydroxymethyl)cyclopropylsulfonyl)phenoxy)-3-((R)-8-(pyridin-3-ylsulfonyl)-1-oxa-8-azaspiro[4.5]decan-3-ylamino)propan-2-ol], the IC50 turned out to be 1.53 µM.

As for `CCS(=O)(=O)c1cccc(OC[C@@H](O)CN[C@H]2COC3(CCN(S(=O)(=O)c4ccc(OC)c(-c5ccc(C6(N)CC6)cc5)c4)CC3)C2)c1` [Compound 258, (S)-1-((R)-8-(4′-(1-aminocyclopropyl)-6-methoxybiphenyl-3-ylsulfonyl)-1-oxa-8-azaspiro[4.5]decan-3-ylamino)-3-(3-(ethylsulfonyl)phenoxy)propan-2-ol], the IC50 worked out at 0.0277 µM.

As for `O=S(=O)(CC1CC1)c1cccc(OC[C@@H](O)CN[C@H]2COC3(CCN(S(=O)(=O)c4ccc5ncccc5c4)CC3)C2)c1` [Compound 117, (S)-1-(3-(cyclopropylmethylsulfonyl)phenoxy)-3-((R)-8-(quinolin-6-ylsulfonyl)-1-oxa-8-azaspiro[4.5]decan-3-ylamino)propan-2-ol], the IC50 stood at 0.172 µM.

On to `NCc1ccc(-c2cccc(S(=O)(=O)N3CCC4(CC3)C[C@H](NC[C@H](O)COc3cccc(S(=O)(=O)C5(CO)CC5)c3)CO4)c2)cc1F` [Compound 182, (S)-1-((S)-8-(4′-(aminomethyl)-3′-fluorobiphenyl-3-ylsulfonyl)-1-oxa-8-azaspiro[4.5]decan-3-ylamino)-3-(3-(1-(hydroxymethyl)cyclopropylsulfonyl)phenoxy)propan-2-ol], for which the IC50 stood at 0.0247 µM.

Regarding `NCc1ccc(-c2cccc(S(=O)(=O)N3CCC4(CC3)C[C@@H](NC[C@H](O)COc3cccc(S(=O)(=O)C5CC5)c3)CO4)c2)cc1` [Compound 189, (S)-1-((R)-8-(4′-(aminomethyl)biphenyl-3-ylsulfonyl)-1-oxa-8-azaspiro[4.5]decan-3-ylamino)-3-(3-(cyclopropylsulfonyl)phenoxy)propan-2-ol], the IC50 is 0.0103 µM.

Regarding `CN1CCN(C)c2ncc(S(=O)(=O)N3CCC4(CC3)C[C@@H](NC[C@H](O)COc3cccc(S(=O)(=O)C5(CO)CC5)c3)CO4)cc21` [Compound 222, (S)-1-((R)-8-(1,4-dimethyl-1,2,3,4-tetrahydropyrido[3,2-b]pyrazin-7-ylsulfonyl)-1-oxa-8-azaspiro[4.5]decan-3-ylamino)-3-(3-(1-(hydroxymethyl)cyclopropylsulfonyl)phenoxy)propan-2-ol], the IC50 turned out to be 0.0476 µM.

For `CS(=O)(=O)c1cccc(OC[C@@H](O)CN[C@@H]2COC3(CCN(S(=O)(=O)c4ccc5ccccc5c4)CC3)C2)c1` [Compound 4, (S)-1-(3-(methylsulfonyl)phenoxy)-3-((S)-8-(naphthalen-2-ylsulfonyl)-1-oxa-8-azaspiro[4.5]decan-3-ylamino)propan-2-ol], the IC50 turned out to be 0.00445 µM.

As for `CCn1cc(S(=O)(=O)N2CCC3(CC2)C[C@@H](NC[C@H](O)COc2cccc(S(C)(=O)=O)c2)CO3)c(=O)c2cccc(F)c21` [Compound 322, 1-ethyl-8-fluoro-3-((R)-3-((S)-2-hydroxy-3-(3-(methylsulfonyl)phenoxy)propylamino)-1-oxa-8-azaspiro[4.5]decan-8-ylsulfonyl)quinolin-4(1H)-one], the IC50 was determined as 0.0218 µM.

As to `O=S(=O)(CF)c1cccc(OC[C@@H](O)CNC2COC3(CCN(S(=O)(=O)c4ccc5ccccc5c4)CC3)C2)c1` (stereo partly drawn) [Compound 86, (2S)-1-(3-(fluoromethylsulfonyl)phenoxy)-3-(8-(naphthalen-2-ylsulfonyl)-1-oxa-8-azaspiro[4.5]decan-3-ylamino)propan-2-ol], the IC50 was 0.0091 µM.

For the compound `CS(=O)(=O)c1cccc(OC[C@@H](O)CNC2COC3(CCN(S(=O)(=O)c4ccc5ccccc5c4)CC3)C2)c1` (stereo partly drawn) [Compound 1, (2S)-1-(3-(methylsulfonyl)phenoxy)-3-(8-(naphthalen-2-ylsulfonyl)-1-oxa-8-azaspiro[4.5]decan-3-ylamino)propan-2-ol], the IC50 was found to be 0.00442 µM.

With `O=S(=O)(CCO)c1cccc(OC[C@@H](O)CN[C@H]2COC3(CCN(S(=O)(=O)c4cccc(-c5ccccn5)c4)CC3)C2)c1` [Compound 100, (S)-1-(3-(2-hydroxyethylsulfonyl)phenoxy)-3-((R)-8-(3-(pyridin-2-yl)phenylsulfonyl)-1-oxa-8-azaspiro[4.5]decan-3-ylamino)propan-2-ol], the IC50 worked out at 0.0922 µM.

Take `CS(=O)(=O)c1cccc(OC[C@@H](O)CN[C@H]2COC3(CCN(S(=O)(=O)c4ccc5ccccc5c4)CC3)C2)c1` [Compound 3, (S)-1-(3-(methylsulfonyl)phenoxy)-3-((R)-8-(naphthalen-2-ylsulfonyl)-1-oxa-8-azaspiro[4.5]decan-3-ylamino)propan-2-ol]: the IC50 worked out at 0.00547 µM.

With `CCn1ncc(S(=O)(=O)N2CCC3(CC2)CC(NC[C@H](O)COc2cccc(S(C)(=O)=O)c2)CO3)c1C` (stereo partly drawn) [Compound 58, (2S)-1-(8-(1-ethyl-5-methyl-1H-pyrazol-4-ylsulfonyl)-1-oxa-8-azaspiro[4.5]decan-3-ylamino)-3-(3-(methylsulfonyl)phenoxy)propan-2-ol], the IC50 stood at 0.109 µM.

For the compound `CCCS(=O)(=O)c1cccc(OC[C@@H](O)CN[C@H]2COC3(CCN(S(=O)(=O)c4ccc5ncccc5c4)CC3)C2)c1` [Compound 115, (S)-1-(3-(propylsulfonyl)phenoxy)-3-((R)-8-(quinolin-6-ylsulfonyl)-1-oxa-8-azaspiro[4.5]decan-3-ylamino)propan-2-ol], the IC50 was determined as 0.12 µM.

Turning to `CS(=O)(=O)c1cccc(OC[C@@H](O)CNC2COC3(CCN(S(=O)(=O)c4cccc(-c5ccccn5)c4)CC3)C2)c1` (stereo partly drawn) [Compound 45, (2S)-1-(3-(methylsulfonyl)phenoxy)-3-(8-(3-(pyridin-2-yl)phenylsulfonyl)-1-oxa-8-azaspiro[4.5]decan-3-ylamino)propan-2-ol], the IC50 was 0.0236 µM.

For `O=S(=O)(c1cccc(-c2ccc(CNC3CCC3)cc2)c1)N1CCC2(CC1)C[C@@H](NC[C@H](O)COc1cccc(S(=O)(=O)C3(CO)CC3)c1)CO2` [Compound 269, (S)-1-((R)-8-(4′-((cyclobutylamino)methyl)biphenyl-3-ylsulfonyl)-1-oxa-8-azaspiro[4.5]decan-3-ylamino)-3-(3-(1-(hydroxymethyl)cyclopropylsulfonyl)phenoxy)propan-2-ol], the IC50 was 0.4 µM.

As to `Cc1cccc(-c2cccc(S(=O)(=O)N3CCC4(CC3)C[C@@H](NC[C@H](O)COc3cccc(S(=O)(=O)CCO)c3)CO4)c2)n1` [Compound 128, (S)-1-(3-(2-hydroxyethylsulfonyl)phenoxy)-3-((R)-8-(3-(6-methylpyridin-2-yl)phenylsulfonyl)-1-oxa-8-azaspiro[4.5]decan-3-ylamino)propan-2-ol], the IC50 is 0.108 µM.

On to `CCOc1ccc(-c2ccc(CN)cc2)cc1S(=O)(=O)N1CCC2(CC1)C[C@H](NC[C@H](O)COc1cccc(S(C)(=O)=O)c1F)CO2` [Compound 209, (S)-1-((S)-8-(4′-(aminomethyl)-4-ethoxybiphenyl-3-ylsulfonyl)-1-oxa-8-azaspiro[4.5]decan-3-ylamino)-3-(2-fluoro-3-(methylsulfonyl)phenoxy)propan-2-ol], for which the IC50 came to 0.00879 µM.

Take `O=S(=O)(c1cnc2c(c1)OCCO2)N1CCC2(CC1)C[C@@H](NC[C@H](O)COc1cccc(S(=O)(=O)C3(CO)CC3)c1)CO2` [Compound 285, (S)-1-((R)-8-(2,3-dihydro-[1,4]dioxino[2,3-b]pyridin-7-ylsulfonyl)-1-oxa-8-azaspiro[4.5]decan-3-ylamino)-3-(3-(1-(hydroxymethyl)cyclopropylsulfonyl)phenoxy)propan-2-ol]: the IC50 worked out at 0.303 µM.

Take `CC(C)CS(=O)(=O)c1cccc(OC[C@@H](O)CN[C@H]2COC3(CCN(S(=O)(=O)c4ccc5ncccc5c4)CC3)C2)c1` [Compound 116, (S)-1-(3-(isobutylsulfonyl)phenoxy)-3-((R)-8-(quinolin-6-ylsulfonyl)-1-oxa-8-azaspiro[4.5]decan-3-ylamino)propan-2-ol]: the IC50 came out at 0.32 µM.
